Data: patent publication US5780642A, “Imidazole derivatives as therapeutic agents” (KNOLL Aktiengesellschaft, priority 1993, dated 1998)
Structures can show the parent of a compound that is named as a salt.

What follows are compounds tested on Zymosan Stimulated Macrophages (arachidonic acid release) (assay: Test A: Inhibition of Arachidonic Acid Release from Zymosan Stimulated Macrophages). Details: Mus musculus, Macrophage, inhibition of arachidonic acid release, zymosan stimulated mouse peritoneal macrophages; tested at 100, 50, 20, 10, 5 and 1 μM; ≤100 μM considered active; read-out: Test A IC50.
Assay type: cell-based, mouse (female MF1 mice)
Protocol: Test A was carried out in the following way:
Inhibition of Arachidonic Acid Release from Zymosan Stimulated Macrophages
Female MF1 mice (weighing 20 to 25 g) were killed using a rising concentration of CO2. The mice were laid on their backs and the abdomens wiped with 70% alcohol. The skin was pulled back, exposing the peritoneal wall. Medium A (5 ml) (see below) was injected into the peritoneal cavity of each mouse followed by approximately 1 ml of air using a 20 ml syringe and a 21G×40 mm needle in order to form a suspension of macrophage cells. The medium and cells were then removed using a 19G×40 mm needle. The resulting suspension was returned to a sterile beaker kept on ice. The extracts from all the mice were pooled and this pooled cell suspension was counted using a Coulter counter and adjusted to a final cell count of 1-1.3×10^6 cells/ml prior to labelling with [^3 H]-arachidonic acid. Typically five mice provided sufficient cells for each multiwell plate.
Sufficient [^3 H]-arachidonic acid in ethanol to give a final concentration of 1.6 μCi/ml (equivalent to 40 μCi/plate) was blown to dryness under nitrogen. The arachidonic acid was then resuspended in 1 or 2 ml of the cell suspension which was then mixed with the remainder of the cell suspension in a centrifuge bottle. The labelled cell suspension was then plated out into sterile plastic 96 flat-bottomed well plates (250 μl per well) and incubated overnight at 37° C. in a moist atmosphere of 5% CO2, 95% air.
The following day, non-adherent cells were removed by washing 3 times with sterile phosphate buffered saline (PBS). The adherent peritoneal macrophages were then cultured for a further 24 hours in the presence or absence of drugs, in medium B (see below) at 37° in a 5% CO2 atmosphere in order to measure the effects of drugs on the spontaneous release of arachidonic acid in the absence of stimulus. After this incubation, supernatants were removed to give media 1 and stored in sealed multi-well plates at 4° C. prior to scintillation counting. Drugs which potentiated spontaneous release of arachidonic acid (125% of controls) were deemed to be toxic at the concentration at which this phenomenon occurred. The supernatants were replaced by fresh medium C containing fresh drug and a stimulus. Three drugs were tested at six concentrations (100, 50, 20, 10, 5 and 1 μM) in replicates of four on each plate. The other wells contained controls consisting of a positive control (e.g. dexamethasone), medium (B) only and medium C only.
Incubation was then continued for a further 5 hours, whereupon the supernatants were collected to give media 2 and the adherent cells washed with PBS. The cells were then lysed with 100 μl of 0.1% TRITON® X100 in a 0.1% solution of bovine serum albumin in 0.9% saline and mechanically disrupted to give cell lysates. These supernatants (media 2) and cell lysates (Cells) were also stored in sealed multi-well plates at 4° C. prior to scintillation counting. 200 μl aliquots of media, or 100 μl aliquots of cells were counted using 2 ml of OPTIPHASE "HIGH SAFE" (Trademark of LKB) as scintillant.
The percentage of arachidonic acid released was calculated using the mean values for each group of 4 wells in the following equation. [formula]
The value for the arachidonic acid release in the absence of stimulus (spontaneous, cpm of media 2) from cells which had been exposed to neither stimulus nor drug was subtracted from all equivalent values (cpm media 2, stimulated with or without drug) to give the net stimulated release. The percentage inhibition of arachidonic acid release caused by a drug may then be calculated using the following equation. [formula]
Compounds of formula I were tested at six concentrations (100, 50, 20, 10, 5 and 1 μM) and IC50 values calculated. Compounds with IC50 values≤100 μM are considered to be active. Advantageous compounds have an IC50 value<50 μM.
Medium A (for peritoneal lavage) […]
With `CCc1ccc(OCCNCCCn2ccnc2)cc1` [Example 5, N-[2-(4-Ethylphenoxy)ethyl]-3-(imidazol-1-yl)propylamine] the IC50 was 17 µM.
In the case of `Cc1ccc(OCCNCCCn2ccnc2)cc1C` [Example 6, N-[2-(3,4-Dimethylphenoxy)ethyl]-3-(imidazol-1-yl)propylamine], the IC50 is reported as 20 µM.
Compound `Clc1ccc(OCCCNCCCn2ccnc2)cc1` [Example 9, 3-(4-Chlorophenoxy)-3'-(imidazol-1-yl)dipropylamine] has an IC50 of 50 µM.
For `c1ccc(COc2ccc(OCCNCCCn3ccnc3)cc2)cc1` [Example 10, N-[2-(4-Benzyloxyphenoxy)ethyl]-3-(imidazol-1-yl)propylamine dihydrochloride hydrate], the IC50 was 36 µM.
`Clc1ccc(SCCNCCCn2ccnc2)cc1` [Example 11, N-[2-(4-Chlorophenylthio)ethyl]-3-(imidazol-1-yl)propylamine] was tested, and the IC50 was 37 µM.
`Cc1nccn1CCCNCCCc1ccc(Cl)cc1` [Example 12, 3-(4-Chlorophenyl)-3'-(2-methylimidazol-1-yl)dipropylamine] was tested, and the IC50 was 7 µM.
With `CC(C)(CNCCCn1ccnc1)c1ccc(Cl)cc1` [Example 13, 2-(4-Chlorophenyl)-3'-(imidazol-1-yl)-2-methyldipropylamine dihydrochloride] the IC50 was 9 µM.
Compound `Clc1ccc(CCCNCCCn2ccnc2)cc1` [Example 14, 3-(4-Chlorophenyl)-3'-(imidazol-1-yl)dipropylamine] has an IC50 of 6 µM.
`CC(C)(CNCCCn1ccnc1)Sc1ccc(Cl)cc1` [Example 18, 2-(4-Chlorophenylthio)-3'-(imidazol-1-yl)-2-methyldipropylamine dihydrochloride] was tested, and the IC50 was 20 µM.
For `Cc1cc(SCC(C)(C)NCCCn2ccnc2)c(C)cc1Cl` [Example 20, N-[2-(4-Chloro-2,5-xylylthio)-1,1-dimethylethyl]-3-(imidazol-1-yl)propylamine dihydrochloride], the IC50 was 4 µM.
Work on `CC(C)(NCCCn1cnc(CCN)c1)c1ccc(Cl)cc1` [Example 22, 3-[4-(2-Aminoethyl)imidazol-1-yl]-N-[1-(4-chlorophenyl)-1-methylethyl]propylamine trihydrochloride] yielded an IC50 of 26 µM.
Work on `CC(C)(NCCCn1ccnc1C(O)c1ccccc1)c1ccc(Cl)cc1` (stereo not drawn) [Example 23, α-(1-{3-[1-(4-Chlorophenyl)-1-methylethylamino]propyl}-imidazol-2-yl)benzyl alcohol] yielded an IC50 of 7 µM.
`Cc1ccc(S(=O)(=O)Cc2ccc(C(C)(C)NCCCn3ccnc3)cc2)cc1C` [Example 24, 3-(imidazol-1-yl)-N-{1-methyl-1-[4-(3,4-xylylsulphonylmethyl)phenyl]ethyl}propylamine dihydrochloride hydrate] gave an IC50 of 22 µM.
Compound `CCCCCCS(=O)(=O)Cc1ccc(C(C)(C)NCCCn2ccnc2)cc1` [Example 25, N-(1-[4-(Hexylsulphonylmethyl)phenyl]-1-methylethyl)-3-(imidazol-1-yl)propylamine dihydrochloride] has an IC50 of 11 µM.
In the case of `CCCN(CCC)S(=O)(=O)c1ccc(C(C)(C)NCCCn2ccnc2)cc1` [Example 26, 4-{1-[3-(Imidazol-1-yl)propylamino]-1-methylethyl}-N,N-dipropylbenzenesulphonamide], the IC50 is reported as 10 µM.

Same assay, conditions: Mus musculus, Macrophage, read-out: Test A IC50
In the case of `CC(C)(Cc1ccc(Cl)cc1)NCCCn1ccnc1` [Example 21, N-[2-(4-Chlorophenyl)-1,1-dimethylethyl]-3-(imidazol-1-yl)propylamine dihydrochloride], the IC50 is reported as 8 µM.

Same assay, conditions: inhibition of arachidonic acid release, zymosan stimulated mouse peritoneal macrophages; tested at 100, 50, 20, 10, 5 and 1 μM; ≤100 μM considered active; read-out: Test A IC50
`CC(C)(NCC(O)Cn1ccnc1)c1ccc(Cl)cc1` (single isomer, unassigned; (+)) [Example 45, (+)-1-[1-(4-Chlorophenyl)-1-methylethylamino]-3-(imidazol-1-yl)propan-2-ol] showed an IC50 of 170 µM.
`CC(C)(NCC(O)Cn1ccnc1)c1ccc(Cl)cc1` (single isomer, unassigned; (-)) [Example 46, (-)-1-[1-(4-Chlorophenyl)-1-methylethylamino]-3-(imidazol-1-yl)propan-2-ol] was tested, and the IC50 was 80 µM.
